In PubChem BioAssay (NCI):
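Protocol summary: plate cells (96-well), add compound at 5 concentrations, incubate 48 h, interpolate endpoints linearly. TGI marks complete inhibition of growth.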

What was measured:
Test in all cases: NCI anticancer screen, dose series, 48 h
OVCAR-4 ovarian = system: OVCAR-4 ovarian
OVCAR-5 ovarian = system: OVCAR-5 ovarian
HCT-15 colon = system: HCT-15 colon
BT-549 breast = system: BT-549 breast
HCC-2998 colon = system: HCC-2998 colon
SF-295 CNS = system: SF-295 CNS
UACC-62 melanoma = system: UACC-62 melanoma
PC-3 prostate = system: PC-3 prostate
NCI/ADR-RES ovarian = system: NCI/ADR-RES ovarian
CAKI-1 renal = system: CAKI-1 renal

Row | SMILES | TGI (OVCAR-4 ovarian) [µM] | TGI (OVCAR-5 ovarian) [µM] | TGI (HCT-15 colon) [µM] | TGI (BT-549 breast) [µM] | TGI (HCC-2998 colon) [µM] | TGI (SF-295 CNS) [µM] | TGI (UACC-62 melanoma) [µM] | TGI (PC-3 prostate) [µM] | TGI (NCI/ADR-RES ovarian) [µM] | TGI (CAKI-1 renal) [µM]
1 | COc1c(OC)c(O)c2c(=O)c(OC)c(-c3ccc4c(c3)OCO4)oc2c1O | > 100 | > 100 | > 100 | > 100 | > 100 | > 100 | > 100 | > 100 | > 100 | > 100
2 | O=c1[nH]c2cc3cccnc3c(Cl)c2nc1C(F)(F)F | 83 | > 100 | > 100 | 86.7 | > 100 | > 100 | > 100 | > 100 | > 100 | 65.4
3 | CC(C)(C)n1c(=O)n(C(=O)C(Cl)(Cl)Cl)n(C(=O)C(Cl)(Cl)Cl)c1=O | > 100 | > 100 | > 100 | > 100 | > 100 | > 100 | > 100 | > 100 | > 100 | > 100
4 | COc1ccc(C(=C(I)c2ccccc2)c2ccc(OC)cc2)cc1 | > 100 | > 100 | > 100 | > 100 | > 100 | > 100 | > 100 | > 100 | > 100 | > 100
5 | CCOC(=O)C1=C(C)C(C(=O)OC)/C(=C/c2cccc3cccnc23)C1=O (stereo not given) | > 10 | > 10 | > 10 | > 10 | > 10 | > 10 | > 10 | > 10 | > 10 | > 10
6 | CC(C)[C@H]1NC(=O)[C@H]2N=C(O[C@@H]2C)[C@@H]2CCCN2C(=O)[C@H](Cc2ccccc2)NC(=O)[C@@H]2CSC(=N2)[C@@H](Cc2ccccc2)NC(=O)[C@@H]2CSC1=N2 | > 100 | > 100 | > 100 | > 100 | > 100 | > 100 | > 100 | > 100 | > 100 | > 100
7 | CC1CC[C@@]2(OC1)O[C@H]1C[C@H]3[C@@H]4CC[C@H]5C[C@@H](OC6OC(CO)C(OC7OC(CO)C(OC8OC(CO)C(O)C(OC9OC(C)C(OC%10OC(C)C(O)C(O)C%10O)C(O)C9O)C8OC8OCC(O)C(O)C8O)C(O)C7O)C(O)C6O)CC[C@]5(C)[C@H]4CC(=O)[C@]3(C)[C@H]1[C@@H]2C (stereo not given in full) | 32.7 | 40.3 | 35.2 | 37 | 32.8 | 39.3 | 32.8 | 30.9 | 43.2 | 29.3
8 | CCOC(=O)c1c2c(n(-c3ccc(OC)cc3)c1C)C(=O)C(=O)c1ccccc1-2 | 3.44 | 3.46 | 8.13 | 4.32 | 3.38 | 3.17 | 3.28 | 5.7 | 2.01 | 2.82
9 | N#Cc1c(N2CCCC2)ncn(Cc2ccccc2)c1=S | > 100 | > 100 | > 100 | > 100 | > 100 | > 100 | > 100 | > 100 | > 100 | > 100
10 | COC(=O)c1ccccc1C#CCCCOS(C)(=O)=O | > 10 | > 10 | > 10 | > 10 | > 10 | > 10 | > 10 | > 10 | > 10 | > 10
11 | C=CC(C)(C)N[C@@H](C(=O)N1CCC[C@H]1c1nc(-c2nc(C(=O)OCC=C(C)C)c(C)o2)c(C)o1)C(C)C | 71.4 | > 100 | 51.5 | 46.2 | 36 | 42.8 | 38.6 | > 100 | 59 | > 100
12 | Cc1cc(=O)n2nc(CSc3nnc(N)s3)sc2n1 | > 100 | > 100 | > 100 | > 100 | > 100 | > 100 | > 100 | > 100 | > 100 | > 100
13 | O=C(NC1(C(=O)NNc2nnc(-c3ccccc3)c(-c3ccccc3)n2)C(c2ccccc2)C(c2ccccc2)=NN1c1ccccc1)c1ccccc1 (stereo not given) | > 100 | > 100 | > 100 | > 100 | > 100 | > 100 | > 100 | > 100 | > 100 | > 100
14 | COc1ccc(/C=C2\CC3C4CC=C5C[C@@H](O)CC[C@]5(C)C4CC[C@]3(C)\C2=N\O)cc1OC (stereo not given in full) | > 100 | > 100 | > 100 | > 100 | > 100 | 80.9 | 25.6 | > 100 | > 100 | > 100
15 | Cc1cc(N=Cc2c(CO)cnc(C)c2O)c(N=Cc2c(CO)cnc(C)c2O)cc1C.[Zn] | > 100 | > 100 | > 100 | > 100 | > 100 | > 100 | > 100 | > 100 | > 100 | > 100
